Measured values: publication PMC2883068 (Molecular Microbiology, 2010)

Target: T1, Rex (Staphylococcus aureus, UniProt P60386)
T1 sequence (P60386 1-211): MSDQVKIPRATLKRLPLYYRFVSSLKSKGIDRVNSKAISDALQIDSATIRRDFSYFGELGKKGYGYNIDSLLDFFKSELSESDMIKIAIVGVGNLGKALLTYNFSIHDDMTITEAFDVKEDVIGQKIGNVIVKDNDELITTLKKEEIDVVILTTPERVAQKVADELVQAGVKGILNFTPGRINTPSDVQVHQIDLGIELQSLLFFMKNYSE
Test: isothermal titration calorimetry
Format: binding

Compound	Kd [µM]
NC(=O)C1=CN([C@@H]2O[C@H](COP(=O)(O)OP(=O)(O)OC[C@H]3O[C@@H](n4cnc5c(N)ncnc54)[C@H](O)[C@@H]3O)[C@@H](O)[C@H]2O)C=CC1 [NADH]	0.095 ± 0.005
NC(=O)c1ccc[n+]([C@@H]2O[C@H](COP(=O)(O)OP(=O)(O)OC[C@H]3O[C@@H](n4cnc5c(N)ncnc54)[C@H](O)[C@@H]3O)[C@@H](O)[C@H]2O)c1 [NAD^+]	150 ± 20
